Article PMC5137954, “Importance of measuring testosterone in enzyme-inhibited plasma for oral testosterone undecanoate androgen replacement therapy clinical trials” (Future Science OA, 2015)

Legend:
[1] = Stability of T and DHT in NaF/Na2EDTA plasma in presence of TU, DHTU and glucuronides (method validation); details: for % Bias of dihydrotestosterone concentration / % Bias of testosterone concentration: DHTU and glucuronides; for increase of the T and DHT concentrations (degradation of TU and DHTU into T or DHT): low and high QCs, room temperature or 4°C, long-term storage at -20 and -80°C
Experimental: The methods were validated as per the most recent US FDA and EMA validation guidelines. During the method validation, the accuracy, precision, within-run, between-run, selectivity, matrix effect as well as the stability (stability in whole blood at 4°C, short-term stability in matrix at room temperature, freeze–thaw stability at -20°C/-80°C, long-term stability at -20°C/-80°C) were evaluated.
The impact of the glucuronide was also assessed in whole blood during sample collection and handling.
Moreover, the possible degradation of TU and DHTU into T or DHT was assessed when low and high T and DHT level quality controls were submitted to freeze–thaw cycles, incubation at room temperature or 4°C and long-term storage at -20 and -80°C.
Low QC samples were fortified with testosterone undecanoate (3000 ng/dL), dihydrotestosterone undecanoate (1500 ng/dL), testosterone glucuronide (800 ng/dL) and dihydrotestosterone undecanoate (400 ng/dL). High QC samples were fortified with testosterone undecanoate (219000 ng/dL), dihydrotestosterone undecanoate (235100 ng/dL), testosterone glucuronide (93600 ng/dL) and dihydrotestosterone undecanoate (21900 ng/dL). The%Bias must be within 15%.

[2] = Clinical study of oral TU: T and DHT in serum versus NaF/Na2 EDTA plasma; details: day 84, oral TU twice daily, fed, 15 hypogonadal men; serum vs NaF-Na2 EDTA plasma
Experimental: A clinical study was performed at the inVentiv Health Clinical facilities where fifteen asymptomatic hypogonadal male subjects aged 18 to 75 years were administered an oral dose of TU twice daily for 84 consecutive days under fed conditions. Each volunteer was informed on the risk of procedure and risk of the clinical study by signing the informed consent. On day 84, serum and plasma samples were collected predose and at 1.5, 3, 4, 5, 6, 8, 10, 12, 13.5, 15, 16, 17, 18, 20, 22 and 24 h after the morning dose. One of the main objectives of this study part was to compare the levels of T and DHT measured with a validated method in NaF/Na2 EDTA plasma to the levels measured in serum.
Pharmacokinetic (PK) parameters were assessed using samples collected on day 84: Ln-transformed area under the concentration–time curve (AUC0–24) and the maximum concentration of analyte (Cmax0–24) obtained with the study samples collected from 0–24 h after the morning dose of TU on last study day 84 were used to compare the levels of testosterone, DHT, TU and DHTU measured in serum in comparison to the levels measured in plasma.
Data reported in Table 5 were obtained from a cohort of 15 subjects undergoing a clinical study of a novel formulation of TU. Table 5 presents summaries of the comparison of the PK results for T and DHT obtained using serum and plasma samples for each analyte. Figure 2 presents the mean analyte concentrations obtained from the serum and plasma samples.

[3] = TU to T conversion depending on the TU spiking solvent used; assay type: in vitro ADME, human
Experimental: We decided to investigate further to better understand the discordance between the conclusions. Literature descriptions of sample preparations include a stock solution prepared in ethanol and diluted in phosphate buffer saline (PBS). In the experiments carried out in the study reported here, it was observed that the stock and spiking solution preparation is very important. A stock solution of TU was prepared in ethanol and diluted with PBS prior to being added to whole blood. Results from this procedure were compared with those typically used in our experiments with TU stock prepared and diluted using methanol, prior to being added to whole blood. It was observed that a precipitate occurred in the PBS solution after a freeze–thaw cycle.
To investigate this effect further, freshly collected whole blood was collected in conventional serum tubes and in NaF/K2C2O4 tubes. Each whole blood tube was fortified with TU at a final concentration of 60,000 ng/dl with solution prepared either in methanol or in ethanol/PBS; each experiment was performed in triplicate. Serum samples were incubated at room temperature for 30 and 60 min, and plasma samples were incubated for 10, 30 and 60 min at 4°C. T and TU were analyzed in the plasma and serum samples obtained.

[4] = conclusion of a published method validation; cited from earlier work
[5] = in serum or plasma, sometimes; cited from earlier work

C[C@]12CC[C@H]3[C@@H](CCC4=CC(=O)CC[C@@]43C)[C@@H]1CC[C@@H]2O[C@@H]1O[C@H](C(=O)O)[C@@H](O)[C@H](O)[C@H]1O [Testosterone glucuronide, testosterone glucuronide]
impact on the quantitation of T and DHT ([1]; low and high QCs fortified with testosterone glucuronide, freeze–thaw cycles, room temperature, 4°C, long-term storage at -20 or -80°C): no impact

C[C@]12CCC(=O)C[C@@H]1CC[C@@H]1[C@@H]2CC[C@]2(C)[C@@H](O)CC[C@@H]12 [Dihydrotestosterone, dihydrotestosterone]
Ratio (serum/plasma) of AUC0–24 [2]: 122.40% | Ratio (serum/plasma) of Cmax0–24 [2]: 130.61% | % Bias of dihydrotestosterone concentration ([1]; High QC 430.0 ng/dL fortified with TU, Freeze/Thaw at -20°C (4 Cycles)): -10.2% | % Bias of dihydrotestosterone concentration ([1]; High QC 430.0 ng/dL fortified with TU, Freeze/Thaw at -80°C (4 Cycles)): -10.7% | % Bias of dihydrotestosterone concentration ([1]; High QC 430.0 ng/dL fortified with TU, Long-Term at -20°C for 14 days): -4.4% | % Bias of dihydrotestosterone concentration ([1]; High QC 430.0 ng/dL fortified with TU, Long-Term at -80°C for 14 days): -5.4% | % Bias of dihydrotestosterone concentration ([1]; High QC 430.0 ng/dL fortified with TU, Post-Preparative at RT for 69 hrs): 8.6% | % Bias of dihydrotestosterone concentration ([1]; High QC 430.0 ng/dL fortified with TU, Short-Term at 4°C for 21 hrs): -0.5% | % Bias of dihydrotestosterone concentration ([1]; High QC 430.0 ng/dL fortified with TU, Short-Term at RT for 23 hrs): 2.5% | % Bias of dihydrotestosterone concentration ([1]; High QC 430.0 ng/dL fortified with TU, Whole Blood on Ice for 110 min): 0.3% | % Bias of dihydrotestosterone concentration ([1]; Low QC 19.2 ng/dL fortified with TU, Freeze/Thaw at -20°C (4 Cycles)): -14.6% | % Bias of dihydrotestosterone concentration ([1]; Low QC 19.2 ng/dL fortified with TU, Freeze/Thaw at -80°C (4 Cycles)): -14.9% | % Bias of dihydrotestosterone concentration ([1]; Low QC 19.2 ng/dL fortified with TU, Long-Term at -20°C for 14 days): -8.7% | % Bias of dihydrotestosterone concentration ([1]; Low QC 19.2 ng/dL fortified with TU, Long-Term at -80°C for 14 days): -8.1% | % Bias of dihydrotestosterone concentration ([1]; Low QC 19.2 ng/dL fortified with TU, Post-Preparative at RT for 69 hrs): 5.1% | % Bias of dihydrotestosterone concentration ([1]; Low QC 19.2 ng/dL fortified with TU, Short-Term at 4°C for 21 hrs): -9.1% | % Bias of dihydrotestosterone concentration ([1]; Low QC 19.2 ng/dL fortified with TU, Short-Term at RT for 23 hrs): -6.1% | % Bias of dihydrotestosterone concentration ([1]; Low QC 19.2 ng/dL fortified with TU, Whole Blood on Ice for 110 min): -6.1%

CCCCCCCCCCC(=O)O[C@H]1CCC2C3CCC4=CC(=O)CC[C@]4(C)C3CC[C@@]21C (stereo partly drawn) [TU, Testosterone undecanoate]
Mean TU Concentration ([3]; whole blood spiked with TU in PBS, 60,000 ng/dl, 30 min serum RT): 3991.0 ng/dL | Mean TU Concentration ([3]; whole blood spiked with TU in PBS, 60,000 ng/dl, 60 min serum RT): 5892.3 ng/dL | Mean TU Concentration ([3]; whole blood spiked with TU in PBS, 60,000 ng/dl, NaF/K2C2O4 plasma 10 min 4°C): 74408.7 ng/dL | Mean TU Concentration ([3]; whole blood spiked with TU in PBS, 60,000 ng/dl, NaF/K2C2O4 plasma 30 min 4°C): 54088.0 ng/dL | Mean TU Concentration ([3]; whole blood spiked with TU in PBS, 60,000 ng/dl, NaF/K2C2O4 plasma 60 min 4°C): 26618.7 ng/dL | Mean TU Concentration ([3]; whole blood spiked with TU in methanol, 60,000 ng/dl, 30 min serum RT): 97110.3 ng/dL | Mean TU Concentration ([3]; whole blood spiked with TU in methanol, 60,000 ng/dl, 60 min serum RT): 96132.3 ng/dL | Mean TU Concentration ([3]; whole blood spiked with TU in methanol, 60,000 ng/dl, NaF/K2C2O4 plasma 10 min 4°C): 97235.0 ng/dL | Mean TU Concentration ([3]; whole blood spiked with TU in methanol, 60,000 ng/dl, NaF/K2C2O4 plasma 30 min 4°C): 95628.0 ng/dL | Mean TU Concentration ([3]; whole blood spiked with TU in methanol, 60,000 ng/dl, NaF/K2C2O4 plasma 60 min 4°C): 93816.3 ng/dL | increase of the T and DHT concentrations (degradation of TU and DHTU into T or DHT) ([1]; freeze–thaw cycles): No increase | stability of TU in blood [4]: stable | TU concentration higher than the testosterone concentration [5]: 20- to 30 times

C[C@]12CC[C@H]3[C@@H](CCC4=CC(=O)CC[C@@]43C)[C@@H]1CC[C@@H]2O [Testosterone, testosterone]
Ratio (serum/plasma) of AUC0–24 [2]: 130.02% | Ratio (serum/plasma) of Cmax0–24 [2]: 134.01% | % Bias of testosterone concentration ([1]; High QC 2300.0 ng/dL fortified with TU, Freeze/Thaw at -20°C (4 Cycles)): -3.3% | % Bias of testosterone concentration ([1]; High QC 2300.0 ng/dL fortified with TU, Freeze/Thaw at -80°C (4 Cycles)): -3.4% | % Bias of testosterone concentration ([1]; High QC 2300.0 ng/dL fortified with TU, Long-Term at -20°C for 14 days): -1.8% | % Bias of testosterone concentration ([1]; High QC 2300.0 ng/dL fortified with TU, Long-Term at -80°C for 14 days): -3.1% | % Bias of testosterone concentration ([1]; High QC 2300.0 ng/dL fortified with TU, Post-Preparative at RT for 69 hrs): 10.1% | % Bias of testosterone concentration ([1]; High QC 2300.0 ng/dL fortified with TU, Short-Term at 4°C for 21 hrs): 0.6% | % Bias of testosterone concentration ([1]; High QC 2300.0 ng/dL fortified with TU, Short-Term at RmT for 23 hrs): 0.2% | % Bias of testosterone concentration ([1]; High QC 2300.0 ng/dL fortified with TU, Whole Blood on ice for 110 min): 8.3% | % Bias of testosterone concentration ([1]; Low QC 40.0 ng/dL fortified with TU, Freeze/Thaw at -20°C (4 Cycles)): -5.8% | % Bias of testosterone concentration ([1]; Low QC 40.0 ng/dL fortified with TU, Freeze/Thaw at -80°C (4 Cycles)): -5.8% | % Bias of testosterone concentration ([1]; Low QC 40.0 ng/dL fortified with TU, Long-Term at -20°C for 14 days): -1.9% | % Bias of testosterone concentration ([1]; Low QC 40.0 ng/dL fortified with TU, Long-Term at -80°C for 14 days): 2.1% | % Bias of testosterone concentration ([1]; Low QC 40.0 ng/dL fortified with TU, Post-Preparative at RT for 69 hrs): 14.0% | % Bias of testosterone concentration ([1]; Low QC 40.0 ng/dL fortified with TU, Short-Term at 4°C for 21 hrs): -4.2% | % Bias of testosterone concentration ([1]; Low QC 40.0 ng/dL fortified with TU, Short-Term at RmT for 23 hrs): -2.5% | % Bias of testosterone concentration ([1]; Low QC 40.0 ng/dL fortified with TU, Whole Blood on ice for 110 min): -11.1%

CCCCCCCCCCC(=O)O[C@H]1CCC2C3CCC4CC(=O)CC[C@]4(C)C3CC[C@@]21C (stereo partly drawn) [DHTU, 5-alpha-dihydrotestosterone undecanoate]
increase of the T and DHT concentrations (degradation of TU and DHTU into T or DHT) ([1]; freeze–thaw cycles): No increase
